Experimental data published in ChEMBL document CHEMBL4033736, “A new type of pharmacological chaperone for GM1-gangliosidosis related human lysosomal β-galactosidase: N-Substituted 5-amino-1-hydroxymethyl-cyclopentanetriols” (Bioorg Med Chem Lett, 2017).
Where a chain is given by its changes, count along the chain named. Calls of active or inactive are those of the source. The rule behind the calls is not given here.

Tests used:
[1] = Competitive inhibition of Escherichia coli lacZ beta-galactosidase using 4-nitrophenyl beta-D-galactopyranoside as substrate pre-incubated for up to 5 mins before substrate addition
Beta-galactosidase [2] = molecular target: T1, Beta-galactosidase (Homo sapiens, UniProt P16278); assay: Competitive inhibition of human fibroblast lysosomal beta-galactosidase using 4-methylumbelliferyl-beta-D-galactopyranoside as substrate pre-incubated for up to 5 mins before substrate addition and measured after 30 mins
T1 sequence (P16278 whole entry): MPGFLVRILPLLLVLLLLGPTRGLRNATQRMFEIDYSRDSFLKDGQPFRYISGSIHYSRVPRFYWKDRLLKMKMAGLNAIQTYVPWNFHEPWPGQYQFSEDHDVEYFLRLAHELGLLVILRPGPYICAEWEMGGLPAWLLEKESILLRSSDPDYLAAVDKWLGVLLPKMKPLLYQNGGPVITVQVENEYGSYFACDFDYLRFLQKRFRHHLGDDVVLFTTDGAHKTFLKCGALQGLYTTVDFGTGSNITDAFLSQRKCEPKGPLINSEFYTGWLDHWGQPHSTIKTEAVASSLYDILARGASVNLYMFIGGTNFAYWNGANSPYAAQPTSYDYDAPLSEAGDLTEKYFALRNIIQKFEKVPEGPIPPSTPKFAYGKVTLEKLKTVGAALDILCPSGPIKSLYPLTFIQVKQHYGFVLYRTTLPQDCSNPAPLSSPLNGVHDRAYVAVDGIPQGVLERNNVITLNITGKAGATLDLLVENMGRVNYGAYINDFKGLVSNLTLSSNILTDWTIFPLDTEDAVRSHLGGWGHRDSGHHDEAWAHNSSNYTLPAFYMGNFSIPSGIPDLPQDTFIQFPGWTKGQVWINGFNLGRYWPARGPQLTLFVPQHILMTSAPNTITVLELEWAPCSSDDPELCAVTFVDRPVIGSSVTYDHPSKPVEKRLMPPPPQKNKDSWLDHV

[3] = system: T2, Beta-galactosidase (Homo sapiens), P16278 [R201C]; assay: Chaperone activity at beta-galactosidase R201C mutant isolated from human patient fibroblasts assessed as increase in enzyme activity at 0.2 uM using 4-nitrophenyl beta-D-galactopyranoside as substrate relative to untreated control
T2 sequence (whole entry): T1 sequence (P16278 whole entry) with R201C

[4] = system: T2, Beta-galactosidase (Homo sapiens), P16278 [R201C]; assay: Chaperone activity at beta-galactosidase R201C mutant isolated from human patient fibroblasts assessed as increase increase in thermal stability at 0.2 uM at 48 degC by thermal stability assay
[5] = molecular target: T3, Lysosomal acid glucosylceramidase (Homo sapiens, UniProt P04062); assay: Competitive inhibition of recombinant beta-glucocerebrosidase (unknown origin) using 4-nitrophenyl beta-D-[…] as substrate pre-incubated for up to 5 mins before substrate addition
T3 sequence (P04062 whole entry): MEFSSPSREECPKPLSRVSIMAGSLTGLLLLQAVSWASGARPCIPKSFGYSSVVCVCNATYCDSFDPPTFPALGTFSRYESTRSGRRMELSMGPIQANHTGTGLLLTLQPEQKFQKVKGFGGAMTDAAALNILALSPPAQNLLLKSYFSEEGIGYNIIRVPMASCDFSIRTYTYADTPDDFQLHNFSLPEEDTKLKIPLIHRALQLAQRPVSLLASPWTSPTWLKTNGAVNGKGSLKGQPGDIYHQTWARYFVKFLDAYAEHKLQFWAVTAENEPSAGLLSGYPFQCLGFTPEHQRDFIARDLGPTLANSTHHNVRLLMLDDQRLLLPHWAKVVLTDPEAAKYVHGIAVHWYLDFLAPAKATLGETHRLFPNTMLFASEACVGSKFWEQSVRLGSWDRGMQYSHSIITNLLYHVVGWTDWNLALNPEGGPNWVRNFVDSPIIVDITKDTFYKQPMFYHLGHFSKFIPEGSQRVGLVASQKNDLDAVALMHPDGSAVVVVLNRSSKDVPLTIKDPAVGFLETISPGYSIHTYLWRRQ

[6] = system: T2, Beta-galactosidase (Homo sapiens), P16278 [R201C]; assay: Inhibition of beta-galactosidase R201C mutant isolated from human patient fibroblasts at 1 uM using 4-nitrophenyl beta-D-galactopyranoside as substrat
[7] = Competitive inhibition of Fabrazyme (human recombinant alpha-galactosidase) using 4-nitrophenyl alpha-galactopyranoside as substrate pre-incubated for up to 5 mins before substrate addition
[8] = Competitive inhibition of Agrobacterium sp. beta-glucosidase using 4-nitrophenyl beta-D-galactopyranoside as substrate pre-incubated for up to 5 mins before substrate addition
[9] = system: T2, Beta-galactosidase (Homo sapiens), P16278 [R201C]; assay: Chaperone activity at beta-galactosidase R201C mutant isolated from human patient fibroblasts assessed as increase in enzyme activity at 1 uM using 4-nitrophenyl beta-D-galactopyranoside as substrate relative to untreated control
[10] = system: T2, Beta-galactosidase (Homo sapiens), P16278 [R201C]; assay: Chaperone activity at beta-galactosidase R201C mutant isolated from human patient fibroblasts assessed as increase in enzyme activity at 0.05 uM using 4-nitrophenyl beta-D-galactopyranoside as substrate relative to untreated control
Beta-galactosidase [11] = molecular target: T4, Beta-galactosidase (Bos taurus, UniProt Q58D55); assay: Competitive inhibition of Bovine liver beta-galactosidase using 4-nitrophenyl beta-D-galactopyranoside as substrate pre-incubated for up to 5 mins before substrate addition
T4 sequence (Q58D55 whole entry): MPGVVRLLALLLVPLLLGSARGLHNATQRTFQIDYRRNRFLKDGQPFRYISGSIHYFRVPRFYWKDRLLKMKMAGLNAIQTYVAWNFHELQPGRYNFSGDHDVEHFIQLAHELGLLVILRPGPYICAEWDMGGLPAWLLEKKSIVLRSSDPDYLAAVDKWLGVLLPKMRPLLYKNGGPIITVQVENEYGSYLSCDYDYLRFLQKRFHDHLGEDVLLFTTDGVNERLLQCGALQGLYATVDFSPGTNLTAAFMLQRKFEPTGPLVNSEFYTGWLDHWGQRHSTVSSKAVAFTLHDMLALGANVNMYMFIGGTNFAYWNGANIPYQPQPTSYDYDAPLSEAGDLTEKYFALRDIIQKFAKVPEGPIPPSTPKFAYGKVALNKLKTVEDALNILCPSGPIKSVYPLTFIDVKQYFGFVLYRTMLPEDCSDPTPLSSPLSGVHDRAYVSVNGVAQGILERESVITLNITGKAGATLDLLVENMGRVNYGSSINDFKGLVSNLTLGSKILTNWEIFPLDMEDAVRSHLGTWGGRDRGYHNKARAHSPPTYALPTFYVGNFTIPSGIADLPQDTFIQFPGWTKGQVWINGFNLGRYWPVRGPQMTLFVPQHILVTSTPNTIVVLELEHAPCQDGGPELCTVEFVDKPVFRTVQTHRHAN

[12] = Competitive inhibition of Saccharomyces cerevisiae alpha-glucosidase using 4-nitrophenyl alpha-[…] as substrate pre-incubated for up to 5 mins before substrate addition
[13] = system: T2, Beta-galactosidase (Homo sapiens), P16278 [R201C]; assay: Chaperone activity at beta-galactosidase R201C mutant isolated from human patient fibroblasts assessed as increase in enzyme activity at 0.1 uM using 4-nitrophenyl beta-D-galactopyranoside as substrate relative to untreated control
[14] = system: T2, Beta-galactosidase (Homo sapiens), P16278 [R201C]; assay: Chaperone activity at beta-galactosidase R201C mutant isolated from human patient fibroblasts assessed as increase in enzyme activity at 10 uM using 4-nitrophenyl beta-D-galactopyranoside as substrate relative to untreated control

Ki (Beta-galactosidase [2])	fold change (FC) [3]	Activity [4]	Ki [5]	inhibition [6]	Ki [7]	Ki [8]	Activity [9]	fold change (FC) [10]	Ki (Beta-galactosidase [11])	Ki [12]	fold change (FC) [9]	fold change (FC) [13]	fold change (FC) [14]	Compound	Ki [1]
9.2 µM	5	Active	54.2 µM	Active	> 2000 µM	0.096 µM	inactive	4	31 µM	> 2000 µM	–	–	–	NCCCCCCN[C@H]1[C@H](O)[C@@H](O)[C@@H](O)[C@H]1CO	16 µM
–	–	–	10.7 µM	–	> 2000 µM	0.006 µM	–	–	0.11 µM	> 2000 µM	–	–	–	N#CCCCCCN[C@H]1[C@H](O)[C@@H](O)[C@@H](O)[C@H]1CO	0.13 µM
0.29 µM	–	–	0.019 µM	–	238 µM	0.0012 µM	–	–	0.0053 µM	> 2000 µM	6	4	7.4	CN(C)c1cccc2c(S(=O)(=O)NCCCCCCN[C@H]3[C@H](O)[C@@H](O)[C@@H](O)[C@H]3CO)cccc12	0.01 µM
0.51 µM	–	–	83 µM	–	> 2000 µM	7.7 µM	–	–	–	> 2000 µM	–	–	–	CCCCCCCCN[C@@H]1C=C(CO)[C@H](O)[C@H](O)[C@H]1O	2.8 µM
–	–	–	0.001 µM	–	> 2000 µM	0.0028 µM	–	–	–	> 2000 µM	–	–	–	CN(C)c1cccc2c(S(=O)(=O)NCCCCCCN(C)[C@H]3[C@H](O)[C@@H](O)[C@@H](O)[C@H]3CO)cccc12	0.016 µM
–	–	–	123 µM	–	> 2000 µM	1.8 µM	–	–	–	> 2000 µM	–	–	–	OC[C@@H]1[C@H](O)[C@H](O)[C@@H](O)[C@@H]1N1CCCC1	33 µM
–	–	–	10.3 µM	–	> 2000 µM	0.0024 µM	–	–	0.13 µM	> 2000 µM	–	–	–	N#CCCCN[C@H]1[C@H](O)[C@@H](O)[C@@H](O)[C@H]1CO	0.068 µM
